Laboratory results taken from ChEMBL document CHEMBL1201862, “PubChem BioAssay data set” (2004).
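Briefly, cells in 96-well plates were exposed to five compound concentrations for 48 h, and endpoints were estimated by linear interpolation. GI50 marks 50% less growth.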 Calls of active or inactive are those of the source. No stated cut-off is given here; in the data, active = GI50 up to about 1.1 µM and inactive = higher.

Experiments:
Assay in all cases: NCI anticancer screen, dose series, 48 h
KM-20L2 = tested on: KM-20L2
HCT-116 = tested on: HCT-116
HCT-15 = tested on: HCT-15
SNB-75 = tested on: SNB-75
UACC-257 = tested on: UACC-257
SW-620 = tested on: SW-620
NCI-H522 = tested on: NCI-H522
SNB-19 = tested on: SNB-19
SK-OV-3 = tested on: SK-OV-3
SK-MEL-28 = tested on: SK-MEL-28
SF-539 = tested on: SF-539
DMS-273 = tested on: DMS-273
EKVX = tested on: EKVX
OVCAR-3 = tested on: OVCAR-3
IGROV-1 = tested on: IGROV-1
SF-268 = tested on: SF-268
HOP-62 = tested on: HOP-62
CAKI-1 = tested on: CAKI-1
OVCAR-4 = tested on: OVCAR-4
SF-295 = tested on: SF-295
SN12C = tested on: SN12C
U-251 = tested on: U-251
SK-MEL-2 = tested on: SK-MEL-2
NCI-H460 = tested on: NCI-H460
HT-29 = tested on: HT-29
LXFL 529 = tested on: LXFL 529
KM12 = tested on: KM12
HL-60 = tested on: HL-60
SR = tested on: SR
A498 = tested on: A498
A549 = tested on: A549
Malme-3M = tested on: Malme-3M
RXF 393 = tested on: RXF 393
SK-MEL-5 = tested on: SK-MEL-5
MOLT-4 = tested on: MOLT-4
786-0 = tested on: 786-0
DMS-114 = tested on: DMS-114
M19-MEL = tested on: M19-MEL
NCI-H226 = tested on: NCI-H226
ACHN = tested on: ACHN
LOX IMVI = tested on: LOX IMVI
M14 = tested on: M14
UO-31 = tested on: UO-31
OVCAR-8 = tested on: OVCAR-8
OVCAR-5 = tested on: OVCAR-5
K562 = tested on: K562
RPMI-8226 = tested on: RPMI-8226
UACC-62 = tested on: UACC-62
HCC 2998 = tested on: HCC 2998
MDA-MB-231 = tested on: MDA-MB-231
T47D = tested on: T47D
NCI-H23 = tested on: NCI-H23
BT-549 = tested on: BT-549
NCI/ADR-RES = tested on: NCI/ADR-RES
MDA-MB-435 = tested on: MDA-MB-435
MCF7 = tested on: MCF7
PC-3 = tested on: PC-3
TK-10 = tested on: TK-10
CCRF-CEM = tested on: CCRF-CEM
MDA-N = tested on: MDA-N
DU-145 = tested on: DU-145
COLO 205 = tested on: COLO 205
Hs-578T = tested on: Hs-578T
HOP-92 = tested on: HOP-92

CCSc1nc2n(c(=S)n1)CCN2C
GI50 (KM-20L2): 20 µM (inactive) | GI50 (HCT-116): 15.7 µM (inactive) | GI50 (HCT-15): 17.5 µM | GI50 (SNB-75): 15.5 µM (inactive) | GI50 (UACC-257): 12.1 µM (inactive) | GI50 (SW-620): 19.7 µM (inactive) | GI50 (NCI-H522): 5.4 µM (inactive) | GI50 (SNB-19): 20.6 µM (inactive) | GI50 (SK-OV-3): 21 µM (inactive) | GI50 (SK-MEL-28): 20.1 µM (inactive) | GI50 (SF-539): 19.2 µM (inactive) | GI50 (DMS-273): 18.1 µM (inactive) | GI50 (EKVX): 28.4 µM (inactive) | GI50 (OVCAR-3): 20 µM (inactive) | GI50 (IGROV-1): 17.7 µM (inactive) | GI50 (SF-268): 27.9 µM (inactive) | GI50 (HOP-62): 28.6 µM (inactive) | GI50 (CAKI-1): 13.5 µM (inactive) | GI50 (OVCAR-4): 18.5 µM (inactive) | GI50 (SF-295): 21.9 µM (inactive) | GI50 (SN12C): 19.6 µM (inactive) | GI50 (U-251): 19.8 µM (inactive) | GI50 (SK-MEL-2): 19.1 µM (inactive) | GI50 (NCI-H460): 21.1 µM (inactive) | GI50 (HT-29): 17.4 µM (inactive) | GI50 (LXFL 529): 13.4 µM (inactive) | GI50 (KM12): 21.4 µM (inactive) | GI50 (HL-60): 16.4 µM (inactive) | GI50 (SR): 7.67 µM (inactive) | GI50 (A498): 19.3 µM (inactive) | GI50 (A549): 24.5 µM (inactive) | GI50 (Malme-3M): 17.1 µM (inactive) | GI50 (RXF 393): 7.89 µM (inactive) | GI50 (SK-MEL-5): 15.2 µM (inactive) | GI50 (MOLT-4): 12.2 µM (inactive) | GI50 (786-0): 18.5 µM (inactive) | GI50 (DMS-114): 18.7 µM (inactive) | GI50 (M19-MEL): 13.5 µM (inactive) | GI50 (NCI-H226): 18.6 µM (inactive) | GI50 (ACHN): 19.1 µM (inactive) | GI50 (LOX IMVI): 18.4 µM (inactive) | GI50 (M14): 15.8 µM (inactive) | GI50 (UO-31): 16.3 µM (inactive) | GI50 (OVCAR-8): 20.7 µM (inactive) | GI50 (OVCAR-5): 21.4 µM (inactive) | GI50 (K562): 27.7 µM (inactive) | GI50 (RPMI-8226): 22 µM (inactive) | GI50 (UACC-62): 12.1 µM (inactive) | GI50 (HCC 2998): 16.3 µM (inactive)

O=C1CCCCC1C(O)(C(F)(F)F)C(F)(F)Cl (configuration not stated)
GI50 (HCT-116): > 10 µM (inactive) | GI50 (HCT-15): > 10 µM | GI50 (SNB-75): > 10 µM (inactive) | GI50 (UACC-257): > 10 µM (inactive) | GI50 (SW-620): > 10 µM (inactive) | GI50 (NCI-H522): > 10 µM (inactive) | GI50 (MDA-MB-231): > 10 µM (inactive) | GI50 (SNB-19): > 10 µM (inactive) | GI50 (SK-OV-3): > 10 µM (inactive) | GI50 (T47D): > 10 µM (inactive) | GI50 (SK-MEL-28): > 10 µM (inactive) | GI50 (SF-539): > 10 µM (inactive) | GI50 (NCI-H23): > 10 µM (inactive) | GI50 (EKVX): > 10 µM (inactive) | GI50 (OVCAR-3): > 10 µM (inactive) | GI50 (IGROV-1): > 10 µM (inactive) | GI50 (SF-268): > 10 µM (inactive) | GI50 (HOP-62): > 10 µM (inactive) | GI50 (BT-549): > 10 µM (inactive) | GI50 (CAKI-1): > 10 µM (inactive) | GI50 (OVCAR-4): > 10 µM (inactive) | GI50 (SF-295): > 10 µM (inactive) | GI50 (SN12C): > 10 µM (inactive) | GI50 (U-251): > 10 µM (inactive) | GI50 (SK-MEL-2): > 10 µM (inactive) | GI50 (NCI/ADR-RES): > 10 µM (inactive) | GI50 (NCI-H460): > 10 µM (inactive) | GI50 (HT-29): > 10 µM (inactive) | GI50 (MDA-MB-435): > 10 µM (inactive) | GI50 (KM12): > 10 µM (inactive) | GI50 (HL-60): > 10 µM (inactive) | GI50 (MCF7): > 10 µM (inactive) | GI50 (PC-3): > 10 µM (inactive) | GI50 (SR): > 10 µM (inactive) | GI50 (TK-10): > 10 µM (inactive) | GI50 (A498): > 10 µM (inactive) | GI50 (A549): > 10 µM (inactive) | GI50 (Malme-3M): > 10 µM (inactive) | GI50 (RXF 393): > 10 µM (inactive) | GI50 (CCRF-CEM): > 10 µM (inactive) | GI50 (SK-MEL-5): > 10 µM (inactive) | GI50 (MOLT-4): > 10 µM (inactive) | GI50 (786-0): > 10 µM (inactive) | GI50 (MDA-N): > 10 µM (inactive) | GI50 (NCI-H226): > 10 µM (inactive) | GI50 (ACHN): > 10 µM (inactive) | GI50 (LOX IMVI): > 10 µM (inactive) | GI50 (DU-145): > 10 µM (inactive) | GI50 (M14): > 10 µM (inactive) | GI50 (OVCAR-8): > 10 µM (inactive) | GI50 (OVCAR-5): > 10 µM (inactive) | GI50 (K562): > 10 µM (inactive) | GI50 (COLO 205): > 10 µM (inactive) | GI50 (Hs-578T): > 10 µM (inactive) | GI50 (RPMI-8226): > 10 µM (inactive) | GI50 (HOP-92): > 10 µM (inactive) | GI50 (UACC-62): > 10 µM (inactive) | GI50 (HCC 2998): > 10 µM (inactive)
